Assay results as given in patent US20250270201A1, “SUBSTITUTED PYRIMIDINYL HYDRAZIDE COMPOUND AND PREPARATION METHOD AND USE THEREOF” (ARIGENX THERAPEUTICS CO., LTD., priority 2022, published 2025).
pIC50: −log10 of the molar value.

Target: T1, AHR (Homo sapiens, UniProt P35869)
T1 construct: A human liver cancer cell line HepG2 endogenously expressing an AHR protein; host or cells: HepG2 stably transfected with a CYP1A1-promoter firefly luciferase reporter
T1 sequence (P35869 11-848): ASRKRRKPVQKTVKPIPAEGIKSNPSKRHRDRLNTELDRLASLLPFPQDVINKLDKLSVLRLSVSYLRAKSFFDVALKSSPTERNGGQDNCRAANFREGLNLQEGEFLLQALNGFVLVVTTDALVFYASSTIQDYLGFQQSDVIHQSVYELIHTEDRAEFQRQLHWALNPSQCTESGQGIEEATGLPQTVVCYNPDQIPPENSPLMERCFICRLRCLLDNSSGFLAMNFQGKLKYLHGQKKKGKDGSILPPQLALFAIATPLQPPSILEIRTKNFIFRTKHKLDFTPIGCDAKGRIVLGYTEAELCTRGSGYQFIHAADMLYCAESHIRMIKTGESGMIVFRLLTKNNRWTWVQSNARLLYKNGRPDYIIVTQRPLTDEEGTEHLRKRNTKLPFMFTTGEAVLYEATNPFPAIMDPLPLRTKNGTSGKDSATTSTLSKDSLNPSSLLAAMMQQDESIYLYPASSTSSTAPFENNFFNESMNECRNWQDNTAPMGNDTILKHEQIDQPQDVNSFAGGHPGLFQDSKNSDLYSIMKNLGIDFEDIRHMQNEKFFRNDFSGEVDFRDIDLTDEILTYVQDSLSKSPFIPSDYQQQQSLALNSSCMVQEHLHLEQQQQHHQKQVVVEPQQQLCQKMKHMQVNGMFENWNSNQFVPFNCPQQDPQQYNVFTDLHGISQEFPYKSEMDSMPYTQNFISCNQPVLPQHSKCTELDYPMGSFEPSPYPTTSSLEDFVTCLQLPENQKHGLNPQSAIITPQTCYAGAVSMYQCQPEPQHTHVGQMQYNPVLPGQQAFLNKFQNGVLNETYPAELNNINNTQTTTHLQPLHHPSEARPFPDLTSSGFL
Assay: Antagonistic effect for AHR in HepG2 cells stably transfected with CYP1A1-promoter firefly luciferase reporter
Type: cell-based
Conditions: AHR agonist-stimulated, 24 h compound treatment, average of two replicates
Excerpt: A human liver cancer cell line HepG2 endogenously expressing an AHR protein (provided by the Stem Cell Bank of the Chinese Academy of Sciences) was adopted for testing. The expression of a CYP1A1 gene is regulated by an activity of AHR. After being activated, AHR can bind to a sequence called XRE on a CYP1A1 enhancer and initiate the expression of the CYP1A1 gene. To quantitatively determine an impact of a compound on the activity of AHR, a 1,200 bp (−1,143 to +57) regulatory sequence upstream of a promoter of the CYP1A1 gene was synthesized through gene synthesis and then inserted into a plasmid vector carrying firefly luciferase. The plasmid was then linearized through single enzyme cleavage and then transfected into HepG2 cells through lipofectin transfection (Lipofectamine 3000), and transfected HepG2 cells were screened by puromycin to obtain a stably-expressed cell line. When an antagonistic effect of a compound for AHR was tested, the expression of firefly luciferase was initiated by an AHR agonist (such as L-kynurenine, kynurenic acid, indirubin, TCDD, and 2-(1H-indol-3-ylcarbonyl)-4-thiazolecarboxylic acid methyl ester (ITE)), and cells were treated with the compound at different concentrations. Then, the inhibition on the expression of luciferase by the compound was measured.
Stably-transfected HepG2 cells were sub-cultivated in Minimum Eagle's medium (MEM) at 37° C. and 5% carbon dioxide. In the MEM, 1 mM sodium pyruvate, 2 mM GlutaMax, 1×non- essential amino acids, 10% Australian fetal bovine serum, 100 U/mL penicillin-streptomycin, and 5 μg/mL puromycin were supplemented. Before testing, HepG2 cells were inoculated into a 96-well plate at a density of 5-8×10^4 cells/well and cultivated for 24 h to 48 h to allow a cell confluency of about 90% before a drug treatment (puromycin was not added in a medium). Before the drug treatment, AHR agonist-containing 2×compound solutions at different concentrations were prepared with a same medium, and then a half of a cell culture medium in the 96-well plate was replaced with a 2×compound solution. An AHR agonist solution including only DMSO at a corresponding concentration was set as a negative control group, and CH223191 at a corresponding concentration (commercially available) was set as a positive control group. 2 separate replicate tests were set for each compound (including a positive control and a negative control). 24 h after the compound treatment, HepG2 cells were lysed by a Steady-Glo luciferase detection system of Promega, and a luciferase signal was measured by an InfiniteM1000 Pro microplate reader of Tecan.
In terms of data processing, for each replicate test of each compound, inhibition percentages of a compound at different concentrations on an activity of AHR were calculated sequentially with a signal of a well at a compound concentration of 0 as 100% and a cell signal of an untreated agonist as 0. Corresponding IC50 of a compound was calculated with an average value of data of two replicates according to the formula
tirougn non-nnear ning, where y represents an inhibition percentage and x represents a concentration of a corresponding compound.
IC50 for each compound was shown in Table 2, where A indicates IC50≤500 nM, B indicates 500 nM<IC50≤1.0 μM, C indicates 1 μM<IC50≤5.0 μM, and D indicates IC50>5.0 μM.

Compound | pIC50
O=C(NN1CCOC[C@H]1CO)c1cc(-c2ccc(Cl)cc2)nc(-c2cccnc2)n1 (stereo in doubt) [Compound 46] | ≥ 6.30
CC(C)N(NC(=O)c1cc(-c2ccc(C(F)(F)F)cc2)nc(-c2cccnc2)n1)C(C)CO (centres unmarked) [Compound 1, 6-(4-trifluoromethylenyl)-N-(1-hydroxypropyy1-2-yl)-N-isopropyl-2-(pyridin-3-yl)pyrimidin-4-hydrazide] | ≥ 6.30
CC(C)N(NC(=O)c1cc(-c2ccc(Cl)cc2)nc(-c2cccnc2)n1)C(C)CO (centres unmarked) [Compound 2] | ≥ 6.30
CC1COCC(C)N1NC(=O)c1cc(-c2ccc(OC(F)(F)F)cc2)nc(-c2cccnc2)n1 (centres unmarked) [Compound 3] | ≥ 6.30
C[C@H]1COCCN1NC(=O)c1cc(-c2ccc(C(F)(F)F)cc2)nc(-c2cccnc2)n1 [Compound 4] | ≥ 6.30
C[C@@H]1COCCN1NC(=O)c1cc(-c2ccc(C(F)(F)F)cc2)nc(-c2cccnc2)n1 [Compound 5] | ≥ 6.30
C[C@H]1COCCN1NC(=O)c1cc(-c2ccc(OC(F)(F)F)cc2)nc(-c2cccnc2)n1 [Compound 6] | ≥ 6.30
C[C@@H]1COCCN1NC(=O)c1cc(-c2ccc(OC(F)(F)F)cc2)nc(-c2cccnc2)n1 [Compound 7] | ≥ 6.30
C[C@H]1COCCN1NC(=O)c1cc(-c2ccc(Cl)cc2)nc(-c2cccnc2)n1 [Compound 8] | ≥ 6.30
C[C@@H]1COCCN1NC(=O)c1cc(-c2ccc(Cl)cc2)nc(-c2cccnc2)n1 [Compound 9] | ≥ 6.30
CC(C)NNC(=O)c1cc(-c2ccc(C(F)(F)F)cc2)nc(-c2cccnc2)n1 [Compound 10] | ≥ 6.30
CC1COCC(=O)N1NC(=O)c1cc(-c2ccc(OC(F)(F)F)cc2)nc(-c2cccnc2)n1 (centres unmarked) [Compound 11] | ≥ 6.30
CC1COCC(CO)N1NC(=O)c1cc(-c2ccc(C(F)(F)F)cc2)nc(-c2cccnc2)n1 (centres unmarked) [Compound 12] | ≥ 6.30
CC(CO)NNC(=O)c1cc(-c2ccc(C(F)(F)F)cc2)nc(-c2cccnc2)n1 (centres unmarked) [Compound 13] | ≥ 6.30
CC(C)N(NC(=O)c1cc(-c2ccc(OC(F)(F)F)cc2)nc(-c2cccnc2)n1)C(C)CO (centres unmarked) [Compound 14] | ≥ 6.30
C[C@H]1COCCN1NC(=O)c1cc(-c2ccc(OC(F)(F)F)cc2)nc(-c2cnn(C)c2)n1 [Compound 15] | ≥ 6.30
C[C@@H]1COCCN1NC(=O)c1cc(-c2ccc(OC(F)(F)F)cc2)nc(-c2cnn(C)c2)n1 [Compound 16] | ≥ 6.30
CN(CCO)NC(=O)c1cc(-c2ccc(Cl)cc2)nc(-c2cccnc2)n1 [Compound 17] | ≥ 6.30
CN(CCO)NC(=O)c1cc(-c2ccc(C(F)(F)F)cc2)nc(-c2cnn(C)c2)n1 [Compound 18] | ≥ 6.30
CC(C)N(CCO)NC(=O)c1cc(-c2ccc(Cl)cc2)nc(-c2cccnc2)n1 [Compound 19] | ≥ 6.30
CC(C)N(CCO)NC(=O)c1cc(-c2ccc(C(F)(F)F)cc2)nc(-c2cnn(C)c2)n1 [Compound 20] | ≥ 6.30
CCN(CCO)NC(=O)c1cc(-c2ccc(Cl)cc2)nc(-c2cccnc2)n1 [Compound 21] | ≥ 6.30
O=C(NN1CCC[C@H]1CO)c1cc(-c2ccc(Cl)cc2)nc(-c2cccnc2)n1 [Compound 22] | 6.00 to 6.30
O=C(NN1CCOCC1CO)c1cc(-c2ccc(C(F)(F)F)cc2)nc(-c2cccnc2)n1 (centres unmarked) [Compound 23] | ≥ 6.30
O=C(NN1CCOCC1)c1cc(-c2ccc(C(F)(F)F)cc2)nc(-c2cccnc2)n1 [Compound 24] | 6.00 to 6.30

Compound | pIC50
O=C(NN1CCS(=O)(=O)CC1)c1cc(-c2ccc(C(F)(F)F)cc2)nc(-c2cccnc2)n1 [Compound 25] | 6.00 to 6.30
CC1(C)COCCN1NC(=O)c1cc(-c2ccc(Cl)cc2)nc(-c2cccnc2)n1 [Compound 26] | ≥ 6.30
CC1(C)COCCN1NC(=O)c1cc(-c2ccc(C(F)(F)F)cc2)nc(-c2cccnc2)n1 [Compound 27] | ≥ 6.30
CC1COCC(=O)N1NC(=O)c1cc(-c2ccc(Cl)cc2)nc(-c2cccnc2)n1 (centres unmarked) [Compound 28] | 6.00 to 6.30
O=C(NN1C(=O)COCC1CO)c1cc(-c2ccc(Cl)cc2)nc(-c2cccnc2)n1 (centres unmarked) [Compound 29] | ≥ 6.30
CC1(C)COCC(=O)N1NC(=O)c1cc(-c2ccc(C(F)(F)F)cc2)nc(-c2cccnc2)n1 [Compound 30] | ≥ 6.30
CC1(C)CN(NC(=O)c2cc(-c3ccc(C(F)(F)F)cc3)nc(-c3cccnc3)n2)CCO1 [Compound 31] | 6.00 to 6.30
CC(O)CN(NC(=O)c1cc(-c2ccc(Cl)cc2)nc(-c2cccnc2)n1)C(C)C (centres unmarked) [Compound 32] | ≥ 6.30
CC(=O)N(NC(=O)c1cc(-c2ccc(C(F)(F)F)cc2)nc(-c2cccnc2)n1)c1cnccn1 [Compound 33] | ≥ 6.30
CC(=O)N(NC(=O)c1cc(-c2ccc(C(F)(F)F)cc2)nc(-c2cnn(C)c2)n1)c1cnccn1 [Compound 34] | ≥ 6.30
Cn1cc(-c2nc(C(=O)NN3CCOC[C@@H]3CO)cc(-c3ccc(Cl)cc3)n2)cn1 [Compound 35] | ≥ 6.30
Cn1cc(-c2nc(C(=O)NN3CCOC[C@H]3CO)cc(-c3ccc(Cl)cc3)n2)cn1 [Compound 36] | ≥ 6.30
CC(C)N(NC(=O)c1cc(-c2ccc(C(F)(F)F)nc2)nc(-c2cccc(F)c2)n1)C(C)CO (centres unmarked) [Compound 37] | ≥ 6.30
C[C@@H]1COCCN1NC(=O)c1cc(-c2ccc(C(F)(F)F)cc2)nc(-c2cnn(C)c2)n1 [Compound 38] | 6.00 to 6.30
C[C@H]1COCCN1NC(=O)c1cc(-c2ccc(C(F)(F)F)cc2)nc(-c2cnn(C)c2)n1 [Compound 39] | ≥ 6.30
C[C@@H]1COCCN1NC(=O)c1cc(-c2ccc(Cl)cc2)nc(-c2cnn(C)c2)n1 [Compound 40] | ≥ 6.30
C[C@H]1COCCN1NC(=O)c1cc(-c2ccc(Cl)cc2)nc(-c2cnn(C)c2)n1 [Compound 41] | ≥ 6.30
O=C(NN1CCOC[C@H]1CO)c1cc(-c2ccc(C(F)(F)F)cc2)nc(-c2cccnc2)n1 [Compound 42] | ≥ 6.30
O=C(NN1CCOC[C@@H]1CO)c1cc(-c2ccc(C(F)(F)F)cc2)nc(-c2cccnc2)n1 [Compound 43] | ≥ 6.30
Cn1cc(-c2nc(C(=O)NN3CCOC[C@@H]3CO)cc(-c3ccc(C(F)(F)F)cc3)n2)cn1 [Compound 44] | ≥ 6.30
Cn1cc(-c2nc(C(=O)NN3CCOC[C@H]3CO)cc(-c3ccc(C(F)(F)F)cc3)n2)cn1 [Compound 45] | ≥ 6.30
O=C(NN1CCOC[C@@H]1CO)c1cc(-c2ccc(Cl)cc2)nc(-c2cccnc2)n1 [Compound 47] | ≥ 6.30
COc1ccc(-c2cc(C(=O)NN(C(C)C)C(C)CO)nc(-c3cccnc3)n2)cc1 (centres unmarked) [Compound 48] | 6.00 to 6.30
Cc1ccc(-c2cc(C(=O)NN(C(C)C)C(C)CO)nc(-c3cccnc3)n2)cc1 (centres unmarked) [Compound 49] | ≥ 6.30
Cc1ccc(-c2cc(C(=O)NN(C(C)C)C(C)CO)nc(-c3cccnc3)n2)cn1 (centres unmarked) [Compound 50] | 6.00 to 6.30
